Experimental data as given in article PMC6697720, “Saturation of acyl chains converts cardiolipin from an antagonist to an activator of Toll-like receptor-4” (Cellular and Molecular Life Sciences: CMLS, 2019).

What was measured:
[1] = system: primary human monocytes; experiment: TNF-α and IL-1β secretion in primary human monocytes incubated with CL; format: cell-based; conditions: with NLRP3 inhibitor MCC950
Description: Human monocytes were isolated from PBMCs by immunomagnetic negative selection using the EasySep™ human monocyte enrichment kit without CD16 depletion (STEMCELL™ Technologies).
(§1) 100.000 of freshly isolated PBMCs or monocytes were mixed with stimulants to a final volume of 160 μL/well in round bottom 96-well plates.
(§2) After stimulation, supernatants were collected, centrifuged, and assayed for cytokine secretion, while cells were assayed for viability.
TNF-α and IP-10 were quantified in cell supernatants using DuoSet ELISA kits from R&D Systems and human IL-1β using Instant ELISA™ Kit from Invitrogen, according to the manufacturer’s instructions. Absorbance was read with a BioTek Synergy HT Microplate Readers.
Fig. 3 Saturated but not unsaturated CLs have pro-inflammatory properties. a RAW-Blue™ cells were incubated overnight with the indicated amount of CL or LPS, supernatants were collected, and NF-κB activation quantified via Quanti-Blue™ test and reported here as fold induction as compared to control. Unpaired t test: differences with respect to the control (Ctrl) are not significant if p > 0.05 (no symbol); *p ≤ 0.0007. b Immortalized BMDM cells were incubated overnight with the indicated amount of CL or LPS; supernatants were collected and TNF-α quantified via ELISA assay. c, d Primary human monocytes were incubated overnight with the indicated amount of CL or LPS with or without the NLRP3 inhibitor MCC950, supernatants were collected, and TNF-α and IL-1β were quantified via ELISA assay. Graphs are representative of experiments from six different donors. Unpaired t test: differences with respect to the control (Ctrl) are not significant if p > 0.05 (no symbol); *p ≤ 0.021. Each bar represents the mean + standard deviation of three biological replicates (n = 3). Graphs are representative of at least three independent experiments
C18:0 and C18:2 CLs’ pro-inflammatory activities were validated in primary monocytes isolated from human donor blood. C18:0 CL but not C18:2 CL reproduced LPS activity inducing TNF-α and IL-1β secretion in a dose-dependent manner (Fig. 3c, d).

[2] = system: human PBMCs; experiment: LPS-induced TNF-α and IL-1β release in human PBMCs; format: cell-based; conditions: LPS 100 ng/mL
Description: Blood from healthy volunteers was collected upon informed consent. PBMCs were obtained by Ficoll gradient centrifugation in Histopaque-1077 (Sigma-Aldrich, St Louis, Missouri, United States) using SepMate™ isolation tubes from STEMCELL™ according to the manufacturer’s instructions. Isolated PBMCs were resuspended in RPMI 1640 supplemented with 10% heat-inactivated FBS.
as §1, §2
TNF-α and IP-10 were quantified in cell supernatants using DuoSet ELISA kits from R&D Systems and human IL-1β using Instant ELISA™ Kit from Invitrogen, according to the manufacturer’s instructions. Absorbance was read with a BioTek Synergy HT Microplate Readers. […]

`CC(C)(O)c1coc(S(=O)(=O)NC(=O)Nc2c3c(cc4c2CCC4)CCC3)c1` [MCC950] was tested, and the “inhibition of saturated CL-induced IL-1β secretion” value [1] was “inhibited”, the “inhibition of LPS-induced TNF-α secretion” value ([2]; 4 h) was “not” and the “inhibition of LPS-induced IL-1β secretion” value ([2]; 16 h) was “able to inhibit”.
